The results in this text go back to US20240269139A1, “COMPOUNDS FOR TARGETED PROTEIN DEGRADATION OF KINASES” (DANA-FARBER CANCER INSTITUTE, INC., priority 2020, published 2024).

Holding throughout (format): cell-based
The target of test [1] is protein kinases (human kinome) (Homo sapiens, UniProt P00519).
Test [2] deals with protein kinases (human kinome) (Homo sapiens, UniProt P49137). To be noted: experiment wp168.
Test [3] addresses protein kinases (human kinome) (Homo sapiens, UniProt Q15418). To be noted: for logFC: RPS6KA1 (Q15418-1), direction down.
For test [4], the target named is protein kinases (human kinome) (Homo sapiens, UniProt Q05397).
For test [5], the target named is T1, protein kinases (human kinome) (Homo sapiens, UniProt Q9H8X2).
T1 sequence (Q9H8X2 1-491): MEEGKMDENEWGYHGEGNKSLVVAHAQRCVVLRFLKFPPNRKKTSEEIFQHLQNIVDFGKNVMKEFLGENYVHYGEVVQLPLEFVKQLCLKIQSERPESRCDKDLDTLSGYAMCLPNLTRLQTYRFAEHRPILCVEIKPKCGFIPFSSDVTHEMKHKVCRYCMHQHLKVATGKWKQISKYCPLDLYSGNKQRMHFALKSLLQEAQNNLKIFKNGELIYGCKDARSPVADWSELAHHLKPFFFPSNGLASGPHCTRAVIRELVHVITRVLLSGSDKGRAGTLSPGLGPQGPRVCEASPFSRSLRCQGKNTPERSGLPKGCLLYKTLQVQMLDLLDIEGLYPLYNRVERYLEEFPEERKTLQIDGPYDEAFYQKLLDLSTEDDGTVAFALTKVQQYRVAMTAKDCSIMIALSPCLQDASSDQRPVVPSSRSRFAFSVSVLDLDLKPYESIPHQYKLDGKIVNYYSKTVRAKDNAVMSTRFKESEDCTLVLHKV
The conditions noted are these: IPPK (Q9H8X2).

Test [6] addresses T2, protein kinases (human kinome) (Homo sapiens, UniProt P11387).
T2 sequence (P11387 1-765): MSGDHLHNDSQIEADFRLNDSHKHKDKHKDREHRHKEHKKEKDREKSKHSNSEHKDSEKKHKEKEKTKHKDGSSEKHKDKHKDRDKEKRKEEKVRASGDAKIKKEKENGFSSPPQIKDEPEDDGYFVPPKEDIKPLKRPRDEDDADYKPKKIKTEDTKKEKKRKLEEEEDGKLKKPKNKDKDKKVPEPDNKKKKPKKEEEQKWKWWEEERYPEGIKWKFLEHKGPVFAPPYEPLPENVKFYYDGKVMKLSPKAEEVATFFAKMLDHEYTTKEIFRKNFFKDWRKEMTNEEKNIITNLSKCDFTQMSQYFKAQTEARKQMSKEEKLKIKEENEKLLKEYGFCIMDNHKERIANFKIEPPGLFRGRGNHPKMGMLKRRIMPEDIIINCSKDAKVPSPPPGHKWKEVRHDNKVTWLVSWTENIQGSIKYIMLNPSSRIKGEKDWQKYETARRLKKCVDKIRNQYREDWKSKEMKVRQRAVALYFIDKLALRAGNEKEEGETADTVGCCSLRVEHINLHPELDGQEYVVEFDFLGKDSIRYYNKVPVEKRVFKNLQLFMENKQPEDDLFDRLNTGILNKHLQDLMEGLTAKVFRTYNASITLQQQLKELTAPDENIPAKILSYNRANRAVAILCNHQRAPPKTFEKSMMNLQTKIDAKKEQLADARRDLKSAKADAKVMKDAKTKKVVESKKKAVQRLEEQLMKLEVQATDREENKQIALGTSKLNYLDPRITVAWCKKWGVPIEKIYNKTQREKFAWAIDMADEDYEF
The conditions noted are these: TOP1 P11387; experiment wp080.

In test [7] the target is protein kinases (human kinome) (Homo sapiens, UniProt Q7KZI7).
The target of test [8] is protein kinases (human kinome) (Homo sapiens, UniProt P54646). The conditions noted are these: for logFC: PRKAA2 (P54646).
The target of test [9] is protein kinases (human kinome) (Homo sapiens, UniProt Q15131). To be noted: for logFC: CDK10 (Q15131-1).
For test [10], the target named is protein kinases (human kinome) (Homo sapiens, UniProt Q9BVS4). To be noted: RIOK2 Q9BVS4.
The target in test [11] is protein kinases (human kinome) (Homo sapiens, UniProt O94804). To be noted: STK10 (O94804), experiment wp016.
[12] abbreviates: Accession P49137, direction down.

Where two headings read alike, the source gives them in different places.

protein kinases (human kinome) (Homo sapiens, UniProt P54646), sequence (P54646 whole entry): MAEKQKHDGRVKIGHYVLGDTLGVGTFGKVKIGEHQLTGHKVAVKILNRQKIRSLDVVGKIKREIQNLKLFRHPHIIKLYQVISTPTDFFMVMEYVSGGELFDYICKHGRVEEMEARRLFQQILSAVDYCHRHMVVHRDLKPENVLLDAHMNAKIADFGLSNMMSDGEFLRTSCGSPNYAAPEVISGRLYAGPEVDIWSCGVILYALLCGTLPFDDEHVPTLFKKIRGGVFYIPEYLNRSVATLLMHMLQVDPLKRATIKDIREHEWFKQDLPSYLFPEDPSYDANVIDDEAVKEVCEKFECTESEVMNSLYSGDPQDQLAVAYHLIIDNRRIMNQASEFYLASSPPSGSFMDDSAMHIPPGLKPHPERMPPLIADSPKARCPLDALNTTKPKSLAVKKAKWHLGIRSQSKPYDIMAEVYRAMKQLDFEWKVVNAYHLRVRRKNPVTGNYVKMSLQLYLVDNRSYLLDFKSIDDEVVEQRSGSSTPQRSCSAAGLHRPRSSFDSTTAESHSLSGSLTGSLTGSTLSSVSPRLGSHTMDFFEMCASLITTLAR
protein kinases (human kinome) (Homo sapiens, UniProt P00519), sequence (P00519 whole entry): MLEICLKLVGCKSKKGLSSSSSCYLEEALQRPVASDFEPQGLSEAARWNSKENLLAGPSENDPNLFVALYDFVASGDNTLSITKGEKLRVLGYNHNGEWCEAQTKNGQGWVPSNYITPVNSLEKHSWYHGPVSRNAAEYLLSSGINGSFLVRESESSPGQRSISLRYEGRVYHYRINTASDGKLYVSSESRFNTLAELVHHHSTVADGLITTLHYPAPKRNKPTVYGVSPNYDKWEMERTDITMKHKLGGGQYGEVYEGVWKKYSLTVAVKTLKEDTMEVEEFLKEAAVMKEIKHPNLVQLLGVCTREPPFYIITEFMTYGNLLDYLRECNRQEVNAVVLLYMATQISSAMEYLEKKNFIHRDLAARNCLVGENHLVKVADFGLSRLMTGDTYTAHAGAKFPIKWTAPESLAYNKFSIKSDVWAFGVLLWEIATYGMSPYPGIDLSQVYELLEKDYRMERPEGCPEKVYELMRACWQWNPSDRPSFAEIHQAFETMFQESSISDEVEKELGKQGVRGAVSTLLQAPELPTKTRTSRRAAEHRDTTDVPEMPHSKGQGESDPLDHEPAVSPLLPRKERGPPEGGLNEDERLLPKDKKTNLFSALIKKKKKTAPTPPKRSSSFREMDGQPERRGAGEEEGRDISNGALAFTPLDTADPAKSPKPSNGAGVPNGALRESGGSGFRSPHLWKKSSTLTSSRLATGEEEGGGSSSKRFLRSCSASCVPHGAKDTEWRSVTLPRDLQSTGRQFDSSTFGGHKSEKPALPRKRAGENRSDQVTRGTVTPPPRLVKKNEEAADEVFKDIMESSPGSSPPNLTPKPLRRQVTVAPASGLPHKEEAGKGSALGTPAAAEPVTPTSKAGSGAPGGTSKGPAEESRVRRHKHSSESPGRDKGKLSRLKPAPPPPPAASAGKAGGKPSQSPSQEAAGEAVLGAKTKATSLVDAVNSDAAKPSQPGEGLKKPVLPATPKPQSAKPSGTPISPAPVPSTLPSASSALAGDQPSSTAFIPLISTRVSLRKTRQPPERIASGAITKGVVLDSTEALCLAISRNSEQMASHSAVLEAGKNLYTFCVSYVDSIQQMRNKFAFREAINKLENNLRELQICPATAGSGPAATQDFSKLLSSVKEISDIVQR
protein kinases (human kinome) (Homo sapiens, UniProt Q7KZI7), sequence (Q7KZI7 whole entry): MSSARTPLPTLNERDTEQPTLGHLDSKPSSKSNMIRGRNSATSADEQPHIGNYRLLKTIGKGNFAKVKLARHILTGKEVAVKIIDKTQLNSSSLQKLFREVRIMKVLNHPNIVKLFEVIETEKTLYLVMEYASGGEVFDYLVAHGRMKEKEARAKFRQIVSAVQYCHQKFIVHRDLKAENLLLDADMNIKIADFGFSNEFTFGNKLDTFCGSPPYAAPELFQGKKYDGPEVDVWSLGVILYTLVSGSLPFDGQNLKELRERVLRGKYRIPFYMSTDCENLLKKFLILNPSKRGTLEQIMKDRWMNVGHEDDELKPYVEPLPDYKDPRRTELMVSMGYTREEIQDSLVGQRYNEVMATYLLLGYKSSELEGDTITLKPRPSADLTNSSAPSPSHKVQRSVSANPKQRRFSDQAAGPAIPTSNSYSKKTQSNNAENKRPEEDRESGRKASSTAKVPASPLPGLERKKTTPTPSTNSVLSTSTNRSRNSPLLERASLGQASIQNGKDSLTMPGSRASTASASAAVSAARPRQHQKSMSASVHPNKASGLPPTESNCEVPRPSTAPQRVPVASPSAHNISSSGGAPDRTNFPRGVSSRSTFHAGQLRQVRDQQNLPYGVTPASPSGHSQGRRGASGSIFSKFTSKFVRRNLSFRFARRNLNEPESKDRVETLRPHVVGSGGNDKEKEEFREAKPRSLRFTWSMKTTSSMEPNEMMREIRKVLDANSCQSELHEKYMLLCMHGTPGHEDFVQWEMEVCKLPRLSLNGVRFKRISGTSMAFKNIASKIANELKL
protein kinases (human kinome) (Homo sapiens, UniProt Q15418), sequence (Q15418 whole entry): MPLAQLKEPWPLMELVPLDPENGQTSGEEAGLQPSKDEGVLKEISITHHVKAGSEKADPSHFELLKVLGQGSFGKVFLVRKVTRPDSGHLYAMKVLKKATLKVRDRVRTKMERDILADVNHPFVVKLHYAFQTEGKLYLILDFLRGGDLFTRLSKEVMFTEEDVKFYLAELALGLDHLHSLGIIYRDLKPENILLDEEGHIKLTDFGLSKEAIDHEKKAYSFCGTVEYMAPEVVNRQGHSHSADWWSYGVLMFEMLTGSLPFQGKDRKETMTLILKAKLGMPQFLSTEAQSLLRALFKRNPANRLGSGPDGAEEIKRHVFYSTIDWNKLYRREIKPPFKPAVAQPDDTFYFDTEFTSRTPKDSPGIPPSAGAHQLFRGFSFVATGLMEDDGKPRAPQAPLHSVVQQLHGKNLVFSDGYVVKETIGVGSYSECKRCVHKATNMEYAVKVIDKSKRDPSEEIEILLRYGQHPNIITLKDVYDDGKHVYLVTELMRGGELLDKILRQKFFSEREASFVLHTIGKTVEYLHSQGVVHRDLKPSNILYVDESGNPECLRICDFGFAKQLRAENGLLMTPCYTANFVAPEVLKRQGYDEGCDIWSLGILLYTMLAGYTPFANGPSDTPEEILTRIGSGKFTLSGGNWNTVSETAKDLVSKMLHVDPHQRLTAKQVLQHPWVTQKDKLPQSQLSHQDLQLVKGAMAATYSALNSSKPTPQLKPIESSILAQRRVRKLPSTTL
protein kinases (human kinome) (Homo sapiens, UniProt Q15131), sequence (Q15131 whole entry): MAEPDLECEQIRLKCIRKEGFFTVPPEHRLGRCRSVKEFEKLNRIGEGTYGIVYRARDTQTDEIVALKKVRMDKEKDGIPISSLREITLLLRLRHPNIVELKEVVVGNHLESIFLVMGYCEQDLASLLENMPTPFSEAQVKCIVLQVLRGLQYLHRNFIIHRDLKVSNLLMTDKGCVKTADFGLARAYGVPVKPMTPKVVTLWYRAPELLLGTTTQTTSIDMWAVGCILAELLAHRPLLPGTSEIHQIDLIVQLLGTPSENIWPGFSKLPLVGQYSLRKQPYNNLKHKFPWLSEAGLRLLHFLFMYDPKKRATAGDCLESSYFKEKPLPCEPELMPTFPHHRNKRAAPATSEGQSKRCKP
protein kinases (human kinome) (Homo sapiens, UniProt Q05397), sequence (Q05397 whole entry): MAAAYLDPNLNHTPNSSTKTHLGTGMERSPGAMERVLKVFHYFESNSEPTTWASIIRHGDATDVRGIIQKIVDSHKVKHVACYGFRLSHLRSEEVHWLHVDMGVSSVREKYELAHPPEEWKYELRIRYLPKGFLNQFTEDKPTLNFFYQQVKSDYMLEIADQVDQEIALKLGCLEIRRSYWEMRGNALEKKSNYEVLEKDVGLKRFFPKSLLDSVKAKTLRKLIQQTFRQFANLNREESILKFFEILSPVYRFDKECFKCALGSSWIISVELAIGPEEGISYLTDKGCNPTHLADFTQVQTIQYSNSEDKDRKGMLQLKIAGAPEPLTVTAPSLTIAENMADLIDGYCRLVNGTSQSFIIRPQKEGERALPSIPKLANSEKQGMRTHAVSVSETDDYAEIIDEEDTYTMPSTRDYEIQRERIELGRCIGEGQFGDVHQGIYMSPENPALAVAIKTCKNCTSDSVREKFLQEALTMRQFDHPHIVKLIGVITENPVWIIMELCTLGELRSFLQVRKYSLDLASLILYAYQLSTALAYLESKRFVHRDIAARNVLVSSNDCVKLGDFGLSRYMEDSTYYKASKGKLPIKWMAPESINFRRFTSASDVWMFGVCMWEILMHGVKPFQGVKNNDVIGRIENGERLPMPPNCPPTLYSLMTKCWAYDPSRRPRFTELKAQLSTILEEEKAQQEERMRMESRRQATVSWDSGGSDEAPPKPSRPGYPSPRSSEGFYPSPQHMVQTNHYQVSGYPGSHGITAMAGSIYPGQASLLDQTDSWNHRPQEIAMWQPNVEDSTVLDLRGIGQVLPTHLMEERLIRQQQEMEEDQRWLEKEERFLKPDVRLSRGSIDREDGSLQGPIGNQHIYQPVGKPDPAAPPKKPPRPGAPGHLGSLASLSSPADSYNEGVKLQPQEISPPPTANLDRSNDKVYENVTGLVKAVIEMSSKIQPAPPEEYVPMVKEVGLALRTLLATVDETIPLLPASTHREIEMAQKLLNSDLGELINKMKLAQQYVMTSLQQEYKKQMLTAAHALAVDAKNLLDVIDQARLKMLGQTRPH
protein kinases (human kinome) (Homo sapiens, UniProt P49137), sequence (P49137 whole entry): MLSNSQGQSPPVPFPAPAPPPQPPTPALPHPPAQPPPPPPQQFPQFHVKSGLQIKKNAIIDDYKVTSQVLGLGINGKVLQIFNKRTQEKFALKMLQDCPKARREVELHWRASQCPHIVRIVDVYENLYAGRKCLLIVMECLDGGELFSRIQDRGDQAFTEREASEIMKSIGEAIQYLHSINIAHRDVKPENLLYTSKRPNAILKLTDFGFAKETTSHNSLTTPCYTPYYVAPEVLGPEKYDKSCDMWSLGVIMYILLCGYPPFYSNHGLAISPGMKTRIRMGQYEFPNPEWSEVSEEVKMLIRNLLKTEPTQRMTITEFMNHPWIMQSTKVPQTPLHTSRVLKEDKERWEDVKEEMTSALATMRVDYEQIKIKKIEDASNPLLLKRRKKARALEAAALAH

On to `Cc1ccc(NC(=O)c2cccc(C(F)(F)F)c2)cc1N1Cc2cnc(Nc3ccc(N4CCN(CCCOc5cccc6c5C(=O)N(C5CCC(=O)NC5=O)C6=O)CC4)nc3)nc2N(C)C1=O` (stereo not drawn) [DB0662], for which the “logFC of ABL1 (P00519)” value in [1] (Experiment wp168) was −0.7617. The “logFC ABL1 (P00519)” value in [1] (experiment wp168) is listed as −0.7617. Further, the “logFC MAPKAPK2” value in [2] (setting [12]) and in test [2] (MAPKAPK2 (P49137)) was −0.331 throughout. The molecule further yielded a logFC in [3] (experiment wp168) of −0.4724. Besides, in [3] (experiment wp168), the “logFC RPS6KA1 (Q15418-1)” value is recorded as −0.4724.

On to `Cc1ccc(NC(=O)c2cccc(C(F)(F)F)c2)cc1N1Cc2cnc(Nc3ccc(N4CCN(CCCCC(=O)N[C@H](C(=O)N5C[C@H](O)C[C@H]5C(=O)N[C@@H](C)c5ccc(-c6scnc6C)cc5)C(C)(C)C)CC4)nc3)nc2N(C)C1=O` [DB1113], for which, in [1] (Experiment wp168), the “logFC of ABL1 (P00519)” value is given as −1.014. Moreover, the “logFC ABL1 (P00519)” value in test [1] (experiment wp168) is on record as −1.014. Further, the “logFC MAPKAPK2” value in test [2] (setting [12]) is listed as −3.201. The “logFC MAPKAPK2” value in test [2] (MAPKAPK2 (P49137)) is given as −3.201. In test [3] (experiment wp168), the logFC is −0.7297 and the “logFC RPS6KA1 (Q15418-1)” value was −0.7297.

On to `Cc1ncsc1-c1ccc([C@H](C)NC(=O)[C@@H]2C[C@@H](O)CN2C(=O)[C@@H](NC(=O)CCOCCOCCN2CCN(c3ccc(Nc4ncc(Cl)c(Nc5ccccc5S(=O)(=O)C(C)C)n4)cc3)CC2)C(C)(C)C)cc1` [FMF.06.098.1], for which the logFC in test [4] (PTK2 Q05397, experiment wp114) was −0.9477; in test [5] (experiment wp114), −0.5773. Further, in test [4] (PTK2 Q05397, experiment wp114), the “logFC PTK2” value was −0.9477.

In the case of `Cc1ncsc1-c1ccc([C@H](C)NC(=O)[C@@H]2C[C@@H](O)CN2C(=O)[C@@H](NC(=O)CCCCCN2CCN(c3ccc(Nc4ncc5scc(-c6cccc(NS(C)(=O)=O)c6)c5n4)cc3)CC2)C(C)(C)C)cc1` [RSS0680, (2S,4R)-1-((S)-3,3-Dimethyl-2-(6-(4-(4-((7-(3-(methylsulfonamido)phenyl)thieno[3,2-d]pyrimidin-2-yl)amino)phenyl)piperazin-1-yl)hexanamido)butanoyl)-4-hydroxy-N—((S)-1-(4-(4-methylthiazol-5yl)phenyl)ethyl)pyrrolidine-2-carboxamide], the logFC is on record as −0.4687 in test [6]; −0.4286 in test [7] (MARK2 (Q7KZI7-1), experiment wp117, direction down); −0.4286 in test [7] (MARK2 Q7KZI7-1, experiment wp117).

Regarding `CC(C)S(=O)(=O)c1ccccc1Nc1nc(Nc2ccc(N3CCN(CCOCCNC(=O)CNc4cccc5c4C(=O)N(C4CCC(=O)NC4=O)C5=O)CC3)cc2)ncc1Cl` (stereo not drawn) [SK.3.91], the “logFC ABL1 (P00519)” value in test [1] (experiment wp160, 4 hr) was −0.3545. The “logFC of ABL1 (P00519)” value in [1] (experiment wp160, 4 hr) is on record as −0.3545. Moreover, the figures for the “logFC of PRKAA2 (P54646)” value in [8] (Experiment wp172) and in [8] (experiment wp105) were −0.926 and −0.9029, respectively. Besides, the logFC in [8] (experiment wp105) is given as −0.9029; in test [8] (experiment wp172), −0.926; in [4] (PTK2 Q05397, experiment wp114) it was −1.684; in test [4] (PTK2 Q05397, experiment wp172), −2.689; in test [9] (experiment wp133, 4 hr), −0.544; in test [3] (experiment wp107), −0.3671. Besides, the logFC is reported as −0.363 in [3] (experiment wp160, 4 hr); −0.4561 in test [3] (experiment wp172); −0.5266 in test [7] (MARK2 (Q7KZI7-1), experiment wp107, direction down); −0.6351 in [7] (MARK2 (Q7KZI7-1), experiment wp172, direction down); −0.5266 in [7] (MARK2 Q7KZI7-1, experiment wp107); −0.6351 in test [7] (MARK2 Q7KZI7-1, experiment wp172). For the same molecule, the logFC in test [10] (experiment wp016, 1 uM) was −0.6319; in test [10] (experiment wp103), −0.8311; in test [10] (experiment wp105) it was −0.482; in [10] (experiment wp107) it was −0.7393; in test [10] (experiment wp133, 4 hr), −0.6476; in [10] (experiment wp160, 4 hr) it was −0.4416. Besides, the logFC is −0.4729 in test [5] (experiment wp103); −1.001 in test [5] (experiment wp107); −0.7881 in test [5] (experiment wp114); −0.4816 in test [5] (experiment wp133, 4 hr). In addition, the “logFC PTK2” value is listed as −2.958 in [4] (Accession Q05397, experiment wp105, direction down); −2.958 in test [4] (PTK2 Q05397, experiment wp105); −1.684 in test [4] (PTK2 Q05397, experiment wp114); −2.689 in test [4] (PTK2 Q05397, experiment wp172). In addition, in test [9] (experiment wp133, 4 hr), the “logFC of CDK10 (Q15131-1)” value is −0.544. Moreover, the “logFC RPS6KA1 (Q15418-1)” value in test [3] (Experiment wp172) is listed as −0.4561; in [3] (experiment wp107) it was −0.3671; in [3] (experiment wp160, 4 hr), −0.363. Besides, the “logFC RIOK2” value in test [10] (experiment wp016, 1 uM) is given as −0.6319; in [10] (experiment wp103) it was −0.8311; in test [10] (experiment wp105) it was −0.482; in test [10] (experiment wp107), −0.7393; in test [10] (experiment wp133, 4 hr), −0.6476; in test [10] (experiment wp160, 4 hr) it was −0.4416.

`CC(C)S(=O)(=O)c1ccccc1Nc1nc(Nc2ccc(N3CCN(CCOCCOCCNC(=O)CNc4cccc5c4C(=O)N(C4CCC(=O)NC4=O)C5=O)CC3)cc2)ncc1Cl` (stereo not drawn) [TL12.186]: the logFC is reported as −0.3819 in test [11]; −0.3819 in [11] (direction down); −0.935 in test [9] (experiment wp131); −0.3562 in test [3] (experiment wp131); −0.9134 in test [10] (experiment wp131); −0.7728 in test [10] (experiment wp137). Further, in [5] (experiment wp131), the logFC is given as −0.6311. The “logFC of CDK10 (Q15131-1)” value in [9] (experiment wp131) is −0.935. Moreover, in test [3] (experiment wp131), the “logFC RPS6KA1 (Q15418-1)” value was −0.3562. Also, the “logFC RIOK2” value is recorded as −0.9134 in test [10] (experiment wp131) and −0.7728 in test [10] (experiment wp137).
